Consider 10 compounds from patent US8901118B2, “Compounds and methods for kinase modulation, and indications therefor” (Plexxikon Inc., priority 2010, dated 2014).

One assay concerns the target Fms kinase (Homo sapiens, UniProt P07333). The assay can be described thus: Fms kinase biochemical activity assay (AlphaScreen, biotin-(E4Y)10 phosphorylation). Particulars: 100 μM ATP; read-out: Biochemical Inhibition IC50 Fms. The procedure, abridged: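 Fms kinase (1 ng/well) phosphorylating 30 nM biotin-(E4Y)10 with 100 μM ATP in 25 mM Hepes pH 7.5, MgCl2/MnCl2, 5% DMSO, 20 min at 30 °C. Phosphotyrosine detected by AlphaScreen streptavidin donor and PY20 acceptor beads; IC50 from signal versus compound concentration.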
A general note: In Alpha technology, singlet oxygen from a donor bead excites a nearby acceptor bead.

Another assay addresses T1, BCR-FMS BaF3 cells (Homo sapiens, UniProt P07333).
T1 construct: fused on or other part: P11274 (Breakpoint cluster region protein)
T1 sequence (P07333 582-910): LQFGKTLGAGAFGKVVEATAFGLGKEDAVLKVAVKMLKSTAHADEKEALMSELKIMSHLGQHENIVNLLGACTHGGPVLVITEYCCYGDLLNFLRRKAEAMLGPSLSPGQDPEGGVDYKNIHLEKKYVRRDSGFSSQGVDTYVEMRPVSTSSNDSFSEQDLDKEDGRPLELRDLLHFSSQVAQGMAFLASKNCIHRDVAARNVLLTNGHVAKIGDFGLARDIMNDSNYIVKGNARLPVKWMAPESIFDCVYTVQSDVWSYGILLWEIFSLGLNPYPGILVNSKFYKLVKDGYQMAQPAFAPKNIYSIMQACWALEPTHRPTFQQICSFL
The experiment in a line: BaF3 BCR-FMS cell proliferation assay (ATPlite). The class given is cell-based. Particulars: read-out: Inhibition of Cell Proliferation IC50, BCR/BaF3 Fms. Put shortly:
(§1)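 ATP-based luminescence (ATPlite), read after 10 min at room temperature, served as a proxy for cell number, and IC50 was fitted against compound concentration. Before that, cells were treated for 3 days with an 8-point 1:3 dilution series starting at 10 μM. BaF3 cells were plated at 10,000/well without IL-3, and MV-4-11 cells at 25,000/well.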

Another assay has as its target T2, BCR-NTRK3 BaF3 cells (Homo sapiens, UniProt Q16288).
T2 construct: fused on or other part: P11274 (Breakpoint cluster region protein)
The assay can be described thus: BaF3 BCR-NTRK3 cell proliferation assay (ATPlite). The class given is cell-based. Particulars: read-out: Inhibition of Cell Proliferation IC50, BCR/BaF3 TrkC. Put shortly:
as §1

T2 sequence (Q16288 whole entry, the tested form may be a part): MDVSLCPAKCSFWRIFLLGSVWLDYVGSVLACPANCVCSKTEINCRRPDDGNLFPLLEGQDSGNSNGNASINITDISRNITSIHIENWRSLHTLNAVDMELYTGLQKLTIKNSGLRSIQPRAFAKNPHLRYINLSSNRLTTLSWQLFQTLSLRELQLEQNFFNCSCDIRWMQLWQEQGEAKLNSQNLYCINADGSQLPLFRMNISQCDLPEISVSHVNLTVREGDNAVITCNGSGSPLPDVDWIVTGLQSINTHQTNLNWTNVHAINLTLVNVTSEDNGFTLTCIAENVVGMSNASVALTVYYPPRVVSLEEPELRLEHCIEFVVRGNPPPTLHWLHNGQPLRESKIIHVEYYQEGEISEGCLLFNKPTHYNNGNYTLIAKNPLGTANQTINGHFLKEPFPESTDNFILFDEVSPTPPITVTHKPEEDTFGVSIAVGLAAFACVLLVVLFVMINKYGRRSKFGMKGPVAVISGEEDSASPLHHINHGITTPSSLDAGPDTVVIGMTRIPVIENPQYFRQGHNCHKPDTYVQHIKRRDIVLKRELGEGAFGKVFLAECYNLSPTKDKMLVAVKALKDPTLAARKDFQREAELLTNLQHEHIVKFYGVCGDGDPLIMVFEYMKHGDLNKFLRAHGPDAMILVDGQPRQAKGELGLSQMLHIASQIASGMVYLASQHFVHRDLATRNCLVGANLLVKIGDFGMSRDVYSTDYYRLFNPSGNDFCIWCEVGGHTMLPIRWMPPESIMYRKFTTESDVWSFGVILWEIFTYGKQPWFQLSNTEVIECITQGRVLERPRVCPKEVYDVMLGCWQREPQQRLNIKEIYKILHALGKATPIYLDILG
Chain of Fms kinase (P07333 20-972): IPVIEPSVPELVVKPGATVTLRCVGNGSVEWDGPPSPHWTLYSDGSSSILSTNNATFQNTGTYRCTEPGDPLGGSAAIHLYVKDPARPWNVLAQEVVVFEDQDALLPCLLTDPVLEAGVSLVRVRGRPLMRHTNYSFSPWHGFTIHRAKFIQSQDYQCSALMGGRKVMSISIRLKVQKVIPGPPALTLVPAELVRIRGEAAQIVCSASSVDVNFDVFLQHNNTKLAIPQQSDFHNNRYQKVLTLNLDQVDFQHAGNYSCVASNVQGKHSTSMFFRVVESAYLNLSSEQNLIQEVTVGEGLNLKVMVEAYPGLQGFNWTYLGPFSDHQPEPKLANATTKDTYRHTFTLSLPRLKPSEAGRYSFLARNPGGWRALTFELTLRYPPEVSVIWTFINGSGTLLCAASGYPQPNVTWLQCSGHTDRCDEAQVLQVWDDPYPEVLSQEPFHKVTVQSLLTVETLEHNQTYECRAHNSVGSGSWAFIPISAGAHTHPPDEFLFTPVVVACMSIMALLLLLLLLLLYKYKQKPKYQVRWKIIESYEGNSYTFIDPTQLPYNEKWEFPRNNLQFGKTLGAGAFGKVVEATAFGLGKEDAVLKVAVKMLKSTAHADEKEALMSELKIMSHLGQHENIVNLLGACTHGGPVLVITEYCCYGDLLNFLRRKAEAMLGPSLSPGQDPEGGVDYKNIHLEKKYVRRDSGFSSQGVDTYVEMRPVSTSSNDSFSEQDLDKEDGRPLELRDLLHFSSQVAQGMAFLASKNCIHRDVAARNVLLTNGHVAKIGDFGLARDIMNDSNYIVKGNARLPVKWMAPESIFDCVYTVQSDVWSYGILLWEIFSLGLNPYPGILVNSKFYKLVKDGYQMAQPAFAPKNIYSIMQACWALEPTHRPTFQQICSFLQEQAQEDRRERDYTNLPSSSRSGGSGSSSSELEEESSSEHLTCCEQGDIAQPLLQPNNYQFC

Turning to `CCCNc1ncnc2[nH]cc(C(=O)c3ccc(Nc4cncc(OC)c4)nc3F)c12` [Compound P-4105, [2-fluoro-6-[(5-methoxy-3-pyridyl)amino]-3-pyridyl]-[4-(propylamino)-7H-pyrrolo[2,3-d]pyrimidin-5-yl]methanone], the figures for the IC50 on Fms kinase, on BCR-FMS BaF3 cells and on BCR-NTRK3 BaF3 cells were < 100 nM, < 100 nM and < 1000 nM, respectively.
Regarding `COc1cncc(Nc2ccc(C(=O)c3c[nH]c4ncnc(NC(C)C)c34)c(F)n2)c1` [Compound P-4106, [2-fluoro-6-[(5-methoxy-3-pyridyl)amino]-3-pyridyl]-[4-(isopropylamino)-7H-pyrrolo[2,3-d]pyrimidin-5-yl]methanone], the IC50 was < 100 nM on Fms kinase, < 100 nM at BCR-FMS BaF3 cells and < 10 nM at BCR-NTRK3 BaF3 cells.
As for `COc1cncc(Nc2ccc(C(=O)c3c[nH]c4ncnc(NC5CC5)c34)c(F)n2)c1` [Compound P-4107, [4-(cyclopropylamino)-7H-pyrrolo[2,3-d]pyrimidin-5-yl]-[2-fluoro-6-[(5-methoxy-3-pyridyl)amino]-3-pyridyl]methanone], the IC50 on Fms kinase was < 100 nM; at BCR-FMS BaF3 cells, < 100 nM; at BCR-NTRK3 BaF3 cells it was < 10 nM.
Turning to `CNc1ncnc2[nH]cc(C(=O)c3ccc(Nc4cncc(OC)c4)nc3F)c12` [Compound P-4108, [2-fluoro-6-[(5-methoxy-3-pyridyl)amino]-3-pyridyl]-[4-(methylamino)-7H-pyrrolo[2,3-d]pyrimidin-5-yl]methanone], the IC50 on Fms kinase, at BCR-FMS BaF3 cells and on BCR-NTRK3 BaF3 cells was < 100 nM throughout.
Regarding `Cc1ccc(Nc2ccc(C(=O)c3c[nH]c4ncnc(NC5CCCCC5)c34)c(F)n2)cn1` [Compound P-4111, [4-(cyclohexylamino)-7H-pyrrolo[2,3-d]pyrimidin-5-yl]-[2-fluoro-6-[(6-methyl-3-pyridyl)amino]-3-pyridyl]methanone], the IC50 is < 100 nM at Fms kinase, < 100 nM at BCR-FMS BaF3 cells and < 10 nM at BCR-NTRK3 BaF3 cells.
Take `Cc1ccc(Nc2ccc(C(=O)c3c[nH]c4ncnc(NCC(F)(F)F)c34)c(F)n2)cn1` [Compound P-4112, [2-fluoro-6-[(6-methyl-3-pyridyl)amino]-3-pyridyl]-[4-(2,2,2-trifluoroethylamino)-7H-pyrrolo[2,3-d]pyrimidin-5-yl]methanone]: the IC50 at Fms kinase was < 100 nM; at BCR-FMS BaF3 cells it was < 100 nM; on BCR-NTRK3 BaF3 cells, < 10 nM.
On to `CNc1ncnc2[nH]cc(C(=O)c3ccc(Nc4ccc(C)nc4)nc3F)c12` [Compound P-4115, [2-fluoro-6-[(6-methyl-3-pyridyl)amino]-3-pyridyl]-[4-(methylamino)-7H-pyrrolo[2,3-d]pyrimidin-5-yl]methanone], for which the IC50 at Fms kinase, on BCR-FMS BaF3 cells and on BCR-NTRK3 BaF3 cells was < 10 nM in each case.
With `CCc1ccc(Nc2ccc(C(=O)c3c[nH]c4ncnc(NC5CCOCC5)c34)c(F)n2)cn1` [Compound P-4116, [6-[(6-ethyl-3-pyridyl)amino]-2-fluoro-3-pyridyl]-[4-(tetrahydropyran-4-ylamino)-7H-pyrrolo[2,3-d]pyrimidin-5-yl]methanone], the IC50 on Fms kinase was < 100 nM; on BCR-FMS BaF3 cells, < 10 nM; on BCR-NTRK3 BaF3 cells it was < 10 nM.
As to `CCc1ccc(Nc2ccc(C(=O)c3c[nH]c4ncnc(NC(C)C)c34)c(F)n2)cn1` [Compound P-4117, [6-[(6-ethyl-3-pyridyl)amino]-2-fluoro-3-pyridyl]-[4-(isopropylamino)-7H-pyrrolo[2,3-d]pyrimidin-5-yl]methanone], the IC50 on Fms kinase, at BCR-FMS BaF3 cells and on BCR-NTRK3 BaF3 cells was < 10 nM each time.
For the compound `CCc1ccc(Nc2ccc(C(=O)c3c[nH]c4ncnc(NCC5CC5)c34)c(F)n2)cn1` [Compound P-4118, [4-(cyclopropylmethylamino)-7H-pyrrolo[2,3-d]pyrimidin-5-yl]-[6-[(6-ethyl-3-pyridyl)amino]-2-fluoro-3-pyridyl]methanone], the IC50 on Fms kinase is < 100 nM; on BCR-FMS BaF3 cells it was < 10 nM; on BCR-NTRK3 BaF3 cells, < 10 nM.
